{"source": "PubChem BioAssay AID1963976", "about": "(Molecular Pharmacology Branch, DTP, NCI, 2024)", "test_system": "435261-313-R-J1-PDC tumor spheroid viability", "assay": "Anticancer human tumor 435261-313-R-J1-PDC patient-derived colon adenocarcinoma cell line growth inhibition [PI3K]", "settings": "spheroids with HUVEC and MSC; for pIC50: curve of first compound; for viability, T/C: stronger effect = lower value", "outline": "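Tumor cells were combined with HUVEC and MSCs into spheroids, then dosed with PI3K-inhibitor combinations over half-log ranges capped near clinical Cmax or 10 microM.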", "key": {"[1]": {"settings": "second compound 0.0316 µM, first compound 0.0316 µM"}, "[2]": {"settings": "second compound 0.0316 µM, first compound 0.1 µM"}, "[3]": {"settings": "second compound 0.0316 µM, first compound 0.316 µM"}, "[4]": {"settings": "second compound 0.0316 µM, first compound 1 µM"}, "[5]": {"settings": "second compound 0.0316 µM, first compound 3.16 µM"}, "[6]": {"settings": "second compound 0.0316 µM, first compound 10 µM"}, "[7]": {"settings": "second compound 0.1 µM, first compound 0.0316 µM"}, "[8]": {"settings": "second compound 0.1 µM, first compound 0.1 µM"}, "[9]": {"settings": "second compound 0.1 µM, first compound 0.316 µM"}, "[10]": {"settings": "second compound 0.1 µM, first compound 1 µM"}, "[11]": {"settings": "second compound 0.1 µM, first compound 3.16 µM"}, "[12]": {"settings": "second compound 0.1 µM, first compound 10 µM"}, "[13]": {"settings": "second compound 0.316 µM, first compound 0.0316 µM"}, "[14]": {"settings": "second compound 0.316 µM, first compound 0.1 µM"}, "[15]": {"settings": "second compound 0.316 µM, first compound 0.316 µM"}, "[16]": {"settings": "second compound 0.316 µM, first compound 1 µM"}, "[17]": {"settings": "second compound 0.316 µM, first compound 3.16 µM"}, "[18]": {"settings": "second compound 0.316 µM, first compound 10 µM"}, "[19]": {"settings": "second compound 1 µM, first compound 0.0316 µM"}, "[20]": {"settings": "second compound 1 µM, first compound 0.1 µM"}, "[21]": {"settings": "second compound 1 µM, first compound 0.316 µM"}, "[22]": {"settings": "second compound 1 µM, first compound 1 µM"}, "[23]": {"settings": "second compound 1 µM, first compound 3.16 µM"}, "[24]": {"settings": "second compound 1 µM, first compound 10 µM"}}, "note": "pIC50: −log10 of the molar value.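 Further: spheroids exposed to compounds for 7 days.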", "data": [{"smiles": "CCCS(=O)(=O)Nc1ccc(F)c(C(=O)c2c[nH]c3ncc(-c4ccc(Cl)cc4)cc23)c1F", "note": "+ COc1c(OCCCN2CCOCC2)ccc2c3n(c(=NC(=O)c4cnc(N)nc4)nc12)CCN3", "values": [{"measurement": "pIC50", "setting": "second compound 0.00316 µM", "value": 5.34}, {"measurement": "pIC50", "setting": "second compound 0.01 µM", "value": 5.52}, {"measurement": "pIC50", "setting": "second compound 0.0316 µM", "value": "> 7.50"}, {"measurement": "pIC50", "setting": "second compound 0.1 µM", "value": "> 7.50"}, {"measurement": "pIC50", "setting": "second compound 0.316 µM", "value": "> 7.50"}, {"measurement": "pIC50", "setting": "second compound 1 µM", "value": "> 7.50"}, {"measurement": "viability, T/C", "setting": "second compound 0.00316 µM, first compound 0.0316 µM", "value": 66.6, "unit": "%"}, {"measurement": "viability, T/C", "setting": "second compound 0.00316 µM, first compound 0.1 µM", "value": 77.1, "unit": "%"}, {"measurement": "viability, T/C", "setting": "second compound 0.00316 µM, first compound 0.316 µM", "value": 103, "unit": "%"}, {"measurement": "viability, T/C", "setting": "second compound 0.00316 µM, first compound 1 µM", "value": 83.7, "unit": "%"}, {"measurement": "viability, T/C", "setting": "second compound 0.00316 µM, first compound 3.16 µM", "value": 72.4, "unit": "%"}, {"measurement": "viability, T/C", "setting": "second compound 0.00316 µM, first compound 10 µM", "value": 4.06, "unit": "%"}, {"measurement": "viability, T/C", "setting": "second compound 0.01 µM, first compound 0.0316 µM", "value": 46.7, "unit": "%"}, {"measurement": "viability, T/C", "setting": "second compound 0.01 µM, first compound 0.1 µM", "value": 71.3, "unit": "%"}, {"measurement": "viability, T/C", "setting": "second compound 0.01 µM, first compound 0.316 µM", "value": 70.8, "unit": "%"}, {"measurement": "viability, T/C", "setting": "second compound 0.01 µM, first compound 1 µM", "value": 91.2, "unit": "%"}, {"measurement": "viability, T/C", "setting": "second compound 0.01 µM, first compound 3.16 µM", "value": 49.1, "unit": "%"}, {"measurement": "viability, T/C", "setting": "second compound 0.01 µM, first compound 10 µM", "value": 4.19, "unit": "%"}, {"measurement": "viability, T/C", "setting": "[1]", "value": 25.7, "unit": "%"}, {"measurement": "viability, T/C", "setting": "[2]", "value": 40.4, "unit": "%"}, {"measurement": "viability, T/C", "setting": "[3]", "value": 27.9, "unit": "%"}, {"measurement": "viability, T/C", "setting": "[4]", "value": 33.9, "unit": "%"}, {"measurement": "viability, T/C", "setting": "[5]", "value": 31.7, "unit": "%"}, {"measurement": "viability, T/C", "setting": "[6]", "value": 5.4, "unit": "%"}, {"measurement": "viability, T/C", "setting": "[7]", "value": 24.7, "unit": "%"}, {"measurement": "viability, T/C", "setting": "[8]", "value": 18.1, "unit": "%"}, {"measurement": "viability, T/C", "setting": "[9]", "value": 22, "unit": "%"}, {"measurement": "viability, T/C", "setting": "[10]", "value": 26.3, "unit": "%"}, {"measurement": "viability, T/C", "setting": "[11]", "value": 22.1, "unit": "%"}, {"measurement": "viability, T/C", "setting": "[12]", "value": 4.42, "unit": "%"}, {"measurement": "viability, T/C", "setting": "[13]", "value": 7.13, "unit": "%"}, {"measurement": "viability, T/C", "setting": "[14]", "value": 9.16, "unit": "%"}, {"measurement": "viability, T/C", "setting": "[15]", "value": 10.6, "unit": "%"}, {"measurement": "viability, T/C", "setting": "[16]", "value": 13.5, "unit": "%"}, {"measurement": "viability, T/C", "setting": "[17]", "value": 13.9, "unit": "%"}, {"measurement": "viability, T/C", "setting": "[18]", "value": 4.25, "unit": "%"}, {"measurement": "viability, T/C", "setting": "[19]", "value": 4.51, "unit": "%"}, {"measurement": "viability, T/C", "setting": "[20]", "value": 3.63, "unit": "%"}, {"measurement": "viability, T/C", "setting": "[21]", "value": 4.99, "unit": "%"}, {"measurement": "viability, T/C", "setting": "[22]", "value": 5.37, "unit": "%"}, {"measurement": "viability, T/C", "setting": "[23]", "value": 7.06, "unit": "%"}, {"measurement": "viability, T/C", "setting": "[24]", "value": 2.69, "unit": "%"}]}, {"smiles": "C#Cc1c(F)ccc2cc(O)cc(-c3ncc4c(N5CC6CCC(C5)N6)nc(OCC56CCCN5CC(F)C6)nc4c3F)c12", "note": "(centres undefined) + Cc1nc(NC(=O)N2CCCC2C(N)=O)sc1-c1ccnc(C(C)(C)C(F)(F)F)c1", "values": [{"measurement": "pIC50", "setting": "second compound 0.0316 µM", "value": 5.26}, {"measurement": "pIC50", "setting": "second compound 0.1 µM", "value": 5.67}, {"measurement": "pIC50", "setting": "second compound 0.316 µM", "value": 5.97}, {"measurement": "pIC50", "setting": "second compound 1 µM", "value": "> 7.50"}, {"measurement": "pIC50", "setting": "second compound 3.16 µM", "value": "> 7.50"}, {"measurement": "pIC50", "setting": "second compound 10 µM", "value": "> 7.50"}, {"measurement": "viability, T/C", "setting": "[1]", "value": 73.7, "unit": "%"}, {"measurement": "viability, T/C", "setting": "[2]", "value": 78, "unit": "%"}, {"measurement": "viability, T/C", "setting": "[3]", "value": 102, "unit": "%"}, {"measurement": "viability, T/C", "setting": "[4]", "value": 49, "unit": "%"}, {"measurement": "viability, T/C", "setting": "[5]", "value": 70.5, "unit": "%"}, {"measurement": "viability, T/C", "setting": "[6]", "value": 35.6, "unit": "%"}, {"measurement": "viability, T/C", "setting": "[7]", "value": 61.1, "unit": "%"}, {"measurement": "viability, T/C", "setting": "[8]", "value": 77, "unit": "%"}, {"measurement": "viability, T/C", "setting": "[9]", "value": 98.3, "unit": "%"}, {"measurement": "viability, T/C", "setting": "[10]", "value": 58.2, "unit": "%"}, {"measurement": "viability, T/C", "setting": "[11]", "value": 43.8, "unit": "%"}, {"measurement": "viability, T/C", "setting": "[12]", "value": 18.4, "unit": "%"}, {"measurement": "viability, T/C", "setting": "[13]", "value": 39.2, "unit": "%"}, {"measurement": "viability, T/C", "setting": "[14]", "value": 67.5, "unit": "%"}, {"measurement": "viability, T/C", "setting": "[15]", "value": 46.2, "unit": "%"}, {"measurement": "viability, T/C", "setting": "[16]", "value": 51.7, "unit": "%"}, {"measurement": "viability, T/C", "setting": "[17]", "value": 27.1, "unit": "%"}, {"measurement": "viability, T/C", "setting": "[18]", "value": 12.6, "unit": "%"}, {"measurement": "viability, T/C", "setting": "[19]", "value": 23.7, "unit": "%"}, {"measurement": "viability, T/C", "setting": "[20]", "value": 27, "unit": "%"}, {"measurement": "viability, T/C", "setting": "[21]", "value": 28.4, "unit": "%"}, {"measurement": "viability, T/C", "setting": "[22]", "value": 27.9, "unit": "%"}, {"measurement": "viability, T/C", "setting": "[23]", "value": 13.9, "unit": "%"}, {"measurement": "viability, T/C", "setting": "[24]", "value": 7.05, "unit": "%"}, {"measurement": "viability, T/C", "setting": "second compound 3.16 µM, first compound 0.0316 µM", "value": 17.1, "unit": "%"}, {"measurement": "viability, T/C", "setting": "second compound 3.16 µM, first compound 0.1 µM", "value": 19.7, "unit": "%"}, {"measurement": "viability, T/C", "setting": "second compound 3.16 µM, first compound 0.316 µM", "value": 11.3, "unit": "%"}, {"measurement": "viability, T/C", "setting": "second compound 3.16 µM, first compound 1 µM", "value": 8.79, "unit": "%"}, {"measurement": "viability, T/C", "setting": "second compound 3.16 µM, first compound 3.16 µM", "value": 6.05, "unit": "%"}, {"measurement": "viability, T/C", "setting": "second compound 3.16 µM, first compound 10 µM", "value": 1.23, "unit": "%"}, {"measurement": "viability, T/C", "setting": "second compound 10 µM, first compound 0.0316 µM", "value": 9.19, "unit": "%"}, {"measurement": "viability, T/C", "setting": "second compound 10 µM, first compound 0.1 µM", "value": 6.14, "unit": "%"}, {"measurement": "viability, T/C", "setting": "second compound 10 µM, first compound 0.316 µM", "value": 3.65, "unit": "%"}, {"measurement": "viability, T/C", "setting": "second compound 10 µM, first compound 1 µM", "value": 3.37, "unit": "%"}, {"measurement": "viability, T/C", "setting": "second compound 10 µM, first compound 3.16 µM", "value": 2.05, "unit": "%"}, {"measurement": "viability, T/C", "setting": "second compound 10 µM, first compound 10 µM", "value": 0.32, "unit": "%"}]}]}
